Biological target: T1, active p38 alpha enzyme (Upstate Biotechnology) (Homo sapiens, UniProt Q16539)
T1 construct: purchased Upstate Biotechnology
Assay: p38α biochemical assay (ATP turnover, luminescent detection, Cambrex PKlight)
Conditions: p38α kinase; Table 1 Biological Activity
Method in brief: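 Luminescent PKlight readout of total ATP consumption follows a 2 h, 30C kinase reaction. Enzyme and MapkapK2 substrate run with 1.4 uM ATP (final) in buffer containing Mg2+, Ca2+, chelators, glycerol, reducing agent and BSA; test compounds added by pintool from DMSO.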

T1 sequence (Q16539 whole entry): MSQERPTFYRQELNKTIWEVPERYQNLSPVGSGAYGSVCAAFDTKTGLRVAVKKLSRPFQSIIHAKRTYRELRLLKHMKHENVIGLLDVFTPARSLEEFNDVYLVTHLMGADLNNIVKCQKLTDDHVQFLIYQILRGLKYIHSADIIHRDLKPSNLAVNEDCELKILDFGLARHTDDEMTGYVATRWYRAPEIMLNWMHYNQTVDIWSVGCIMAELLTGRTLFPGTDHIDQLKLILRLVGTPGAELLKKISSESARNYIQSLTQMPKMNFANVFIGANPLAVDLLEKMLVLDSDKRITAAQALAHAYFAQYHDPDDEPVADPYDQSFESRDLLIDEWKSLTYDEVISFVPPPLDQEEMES

IC50	SMILES
> 1 µM	CC(C)NC(=O)c1csc(-c2c(-c3ccc(F)cc3)noc2CNC2CONC2=O)n1 (stereo not shown) [Example 1412]
> 1 µM	CC(C)NC(=O)c1csc(-c2c(-c3ccc(F)cc3)noc2CNC(CO)C(C)C)n1 (stereo not shown) [Example 1414]
> 1 µM	CC(C)NC(=O)c1csc(-c2c(-c3ccc(F)cc3)noc2CNCc2ccccc2)n1 [Example 1415]
> 1 µM	CC(C)NC(=O)c1csc(-c2c(-c3ccc(F)cc3)noc2CNCc2ccncc2)n1 [Example 1418]
> 1 µM	CC(C)NC(=O)c1csc(-c2c(-c3ccc(F)cc3)noc2CNCc2cccs2)n1 [Example 1419]
> 1 µM	CC1CCC(NCc2onc(-c3ccc(F)cc3)c2-c2nc(C(=O)NC(C)C)cs2)CC1 (stereo not shown) [Example 1420]
> 1 µM	CC(C)NC(=O)c1csc(-c2c(-c3ccc(F)cc3)noc2CNCC2CCCCC2)n1 [Example 1421]
> 1 µM	CC(C)NC(=O)c1csc(-c2c(-c3ccc(F)cc3)noc2CNC2CCCCC2C)n1 (stereo not shown) [Example 1423]
≤ 1 µM	CC(C)NC(=O)c1csc(-c2c(-c3ccc(F)cc3)noc2CNCCN2CCCC2)n1 [Example 1424]
> 1 µM	CC(C)NC(=O)c1csc(-c2c(-c3ccc(F)cc3)noc2CNN2CCN(C)CC2)n1 [Example 1425]
> 1 µM	CCN(CC)CCNCc1onc(-c2ccc(F)cc2)c1-c1nc(C(=O)NC(C)C)cs1 [Example 1426]
> 1 µM	CC(C)NC(=O)c1csc(-c2c(-c3ccc(F)cc3)noc2CN[C@H](C)c2ccccc2)n1 [Example 1429]
> 1 µM	CC(C)NC(=O)c1csc(-c2c(-c3ccc(F)cc3)noc2CNCCc2ccccc2)n1 [Example 1430]
> 1 µM	Cc1ccccc1CNCc1onc(-c2ccc(F)cc2)c1-c1nc(C(=O)NC(C)C)cs1 [Example 1431]
> 1 µM	Cc1cnc(CNCc2onc(-c3ccc(F)cc3)c2-c2nc(C(=O)NC(C)C)cs2)cn1 [Example 1433]
> 1 µM	CC(C)NC(=O)c1csc(-c2c(-c3ccc(F)cc3)noc2CNCc2ccc(F)cc2)n1 [Example 1435]
> 1 µM	CC(C)NC(=O)c1csc(-c2c(-c3ccc(F)cc3)noc2CNCCC2CCCN2C)n1 (stereo not shown) [Example 1438]
> 1 µM	CC(C)NC(=O)c1csc(-c2c(-c3ccc(F)cc3)noc2CNCCN2CCOCC2)n1 [Example 1441]
> 1 µM	CC(C)NC(=O)c1csc(-c2c(-c3ccc(F)cc3)noc2CNC2CCc3ccccc32)n1 (stereo not shown) [Example 1443]
> 1 µM	Cc1ccc(C)c(CNCc2onc(-c3ccc(F)cc3)c2-c2nc(C(=O)NC(C)C)cs2)c1 [Example 1445]
> 1 µM	CC(C)NC(=O)c1csc(-c2c(-c3ccc(F)cc3)noc2CNCC(C)c2ccccc2)n1 (stereo not shown) [Example 1448]

IC50	SMILES
> 1 µM	CC(C)NC(=O)c1csc(-c2c(-c3ccc(F)cc3)noc2CNCC(C)c2ccccc2)n1 (stereo not shown) [Example 1449]
> 1 µM	CC(C)NC(=O)c1csc(-c2c(-c3ccc(F)cc3)noc2CNCCCc2ccccc2)n1 [Example 1450]
> 1 µM	CC(C)NC(=O)c1csc(-c2c(-c3ccc(F)cc3)noc2CNC(C)Cc2ccncc2)n1 (stereo not shown) [Example 1452]
> 1 µM	CC(C)NC(=O)c1csc(-c2c(-c3ccc(F)cc3)noc2CNCCc2ccc(O)cc2)n1 [Example 1453]
> 1 µM	COc1ccc(CNCc2onc(-c3ccc(F)cc3)c2-c2nc(C(=O)NC(C)C)cs2)cc1 [Example 1456]
> 1 µM	CC(C)NC(=O)c1csc(-c2c(-c3ccc(F)cc3)noc2CNCCc2ccccc2F)n1 [Example 1459]
> 1 µM	CC(C)NC(=O)c1csc(-c2c(-c3ccc(F)cc3)noc2CNCCc2cccc(F)c2)n1 [Example 1460]
> 1 µM	CC(C)NC(=O)c1csc(-c2c(-c3ccc(F)cc3)noc2CNCc2cccc(Cl)c2)n1 [Example 1461]
> 1 µM	CC(C)NC(=O)c1csc(-c2c(-c3ccc(F)cc3)noc2CNCc2ccc(Cl)cc2)n1 [Example 1463]
≤ 1 µM	CC(C)NC(=O)c1csc(-c2c(-c3ccc(F)cc3)noc2CNCCCN2CCCC2=O)n1 [Example 1464]
> 1 µM	CC(C)NC(=O)c1csc(-c2c(-c3ccc(F)cc3)noc2CNCCCN2CCOCC2)n1 [Example 1468]
> 1 µM	CC(C)NC(=O)c1csc(-c2c(-c3ccc(F)cc3)noc2CNC(C)CCc2ccccc2)n1 (stereo not shown) [Example 1470]
> 1 µM	CC(C)NC(=O)c1csc(-c2c(-c3ccc(F)cc3)noc2CNCc2ccc(C(C)C)cc2)n1 [Example 1471]
> 1 µM	CC(C)NC(=O)c1csc(-c2c(-c3ccc(F)cc3)noc2CN[C@H](CO)Cc2ccccc2)n1 [Example 1474]
> 1 µM	COc1ccc(CCNCc2onc(-c3ccc(F)cc3)c2-c2nc(C(=O)NC(C)C)cs2)cc1 [Example 1475]
> 1 µM	COc1ccccc1CCNCc1onc(-c2ccc(F)cc2)c1-c1nc(C(=O)NC(C)C)cs1 [Example 1476]
> 1 µM	CCOc1ccccc1CNCc1onc(-c2ccc(F)cc2)c1-c1nc(C(=O)NC(C)C)cs1 [Example 1477]
> 1 µM	CC(C)NC(=O)c1csc(-c2c(-c3ccc(F)cc3)noc2CNCCc2ccccc2Cl)n1 [Example 1478]
> 1 µM	CC(C)NC(=O)c1csc(-c2c(-c3ccc(F)cc3)noc2CNCCc2ccc(Cl)cc2)n1 [Example 1479]
> 1 µM	CC(C)NC(=O)c1csc(-c2c(-c3ccc(F)cc3)noc2CNCCc2cccc(Cl)c2)n1 [Example 1480]
> 1 µM	CCN(CC)CCCC(C)NCc1onc(-c2ccc(F)cc2)c1-c1nc(C(=O)NC(C)C)cs1 (stereo not shown) [Example 1482]

Further lines, the molecule ahead of its results:

SMILES	IC50
CC(C)NC(=O)c1csc(-c2c(-c3ccc(F)cc3)noc2CNCc2ccco2)n1 [Example 1407]	> 1 µM
CC(C)NC(=O)c1csc(-c2c(-c3ccc(F)cc3)noc2CNC2CCCCC2)n1 [Example 1408]	> 1 µM
CC(C)NC(=O)c1csc(-c2c(-c3ccc(F)cc3)noc2CNCC2CCCO2)n1 (stereo not shown) [Example 1409]	> 1 µM
CC(C)NC(=O)c1csc(-c2c(-c3ccc(F)cc3)noc2CNCCC(C)(C)C)n1 [Example 1410]	> 1 µM
CC(C)CC(C)NCc1onc(-c2ccc(F)cc2)c1-c1nc(C(=O)NC(C)C)cs1 (stereo not shown) [Example 1411]	> 1 µM
CC(C)NC(=O)c1csc(-c2c(-c3ccc(F)cc3)noc2CNN2CCOCC2)n1 [Example 1413]	> 1 µM
CC(C)NC(=O)c1csc(-c2c(-c3ccc(F)cc3)noc2CNCc2cccnc2)n1 [Example 1416]	> 1 µM
CC(C)NC(=O)c1csc(-c2c(-c3ccc(F)cc3)noc2CNCc2ccccn2)n1 [Example 1417]	> 1 µM
CC(C)NC(=O)c1csc(-c2c(-c3ccc(F)cc3)noc2CNC2CCCCCC2)n1 [Example 1422]	> 1 µM
Cc1cccc(CNCc2onc(-c3ccc(F)cc3)c2-c2nc(C(=O)NC(C)C)cs2)c1 [Example 1427]	> 1 µM
CC(C)NC(=O)c1csc(-c2c(-c3ccc(F)cc3)noc2CN[C@@H](C)c2ccccc2)n1 [Example 1428]	> 1 µM
Cc1ccc(CNCc2onc(-c3ccc(F)cc3)c2-c2nc(C(=O)NC(C)C)cs2)cc1 [Example 1432]	> 1 µM
CC(C)NC(=O)c1csc(-c2c(-c3ccc(F)cc3)noc2CNCc2cccc(F)c2)n1 [Example 1434]	> 1 µM
CC(C)NC(=O)c1csc(-c2c(-c3ccc(F)cc3)noc2CNCc2ccccc2F)n1 [Example 1436]	> 1 µM
CC(C)NC(=O)c1csc(-c2c(-c3ccc(F)cc3)noc2CNCCCn2ccnc2)n1 [Example 1437]	> 1 µM
CC(C)NC(=O)c1csc(-c2c(-c3ccc(F)cc3)noc2CNCCN2CCCCC2)n1 [Example 1439]	> 1 µM
CC(C)CCCC(C)NCc1onc(-c2ccc(F)cc2)c1-c1nc(C(=O)NC(C)C)cs1 (stereo not shown) [Example 1440]	> 1 µM

SMILES	IC50
CCOC(=O)CC(C)NCc1onc(-c2ccc(F)cc2)c1-c1nc(C(=O)NC(C)C)cs1 (stereo not shown) [Example 1442]	> 1 µM
Cc1ccc(CCNCc2onc(-c3ccc(F)cc3)c2-c2nc(C(=O)NC(C)C)cs2)cc1 [Example 1444]	> 1 µM
Cc1ccc([C@H](C)NCc2onc(-c3ccc(F)cc3)c2-c2nc(C(=O)NC(C)C)cs2)cc1 [Example 1446]	> 1 µM
Cc1ccc([C@@H](C)NCc2onc(-c3ccc(F)cc3)c2-c2nc(C(=O)NC(C)C)cs2)cc1 [Example 1447]	> 1 µM
Cc1ccc(CNCc2onc(-c3ccc(F)cc3)c2-c2nc(C(=O)NC(C)C)cs2)cc1C [Example 1451]	> 1 µM
CC(C)NC(=O)c1csc(-c2c(-c3ccc(F)cc3)noc2CNCCOc2ccccc2)n1 [Example 1454]	> 1 µM
COc1ccccc1CNCc1onc(-c2ccc(F)cc2)c1-c1nc(C(=O)NC(C)C)cs1 [Example 1455]	> 1 µM
COc1cccc(CNCc2onc(-c3ccc(F)cc3)c2-c2nc(C(=O)NCC(C)C)cs2)c1 [Example 1457]	> 1 µM
CC(C)NC(=O)c1csc(-c2c(-c3ccc(F)cc3)noc2CNCCc2ccc(F)cc2)n1 [Example 1458]	> 1 µM
CC(C)NC(=O)c1csc(-c2c(-c3ccc(F)cc3)noc2CNCc2ccccc2Cl)n1 [Example 1462]	> 1 µM
CC(C)NC(=O)c1csc(-c2c(-c3ccc(F)cc3)noc2CNCc2ccc(F)cc2F)n1 [Example 1465]	> 1 µM
CC(C)NC(=O)c1csc(-c2c(-c3ccc(F)cc3)noc2CNCc2ccc(F)c(F)c2)n1 [Example 1466]	> 1 µM
CC(C)NC(=O)c1csc(-c2c(-c3ccc(F)cc3)noc2CNCc2cc(F)cc(F)c2)n1 [Example 1467]	> 1 µM
CC(C)NC(=O)c1csc(-c2c(-c3ccc(F)cc3)noc2CNCCN(C(C)C)C(C)C)n1 [Example 1469]	> 1 µM
CC(C)NC(=O)c1csc(-c2c(-c3ccc(F)cc3)noc2CNCc2ccc3c(c2)OCO3)n1 [Example 1472]	> 1 µM
COc1cccc(CCNCc2onc(-c3ccc(F)cc3)c2-c2nc(C(=O)NC(C)C)cs2)c1 [Example 1473]	> 1 µM
CC(C)NC(=O)c1csc(-c2c(-c3ccc(F)cc3)noc2CNC2CC(C)(C)NC(C)(C)C2)n1 [Example 1481]	> 1 µM
